Results from PMC6982996, “Discovery of [1,2,4]Triazole Derivatives as New Metallo-β-Lactamase Inhibitors” (Molecules, 2019).

Assays:
Format in all cases: biochemical
VIM-2 = target: T1, VIM-2 (Escherichia coli, UniProt Q5U7L7); assay: VIM-2 inhibition assay (FC5 fluorogenic substrate); conditions: for IC50: 10 concentrations in threefold dilution, triplicate, read-out: IC50 against VIM-2; for inhibition at 10 µM / inhibition at 100 µM: mean ± SD (n = 3)
T1 construct: Li's Laboratory, Sichuan University (collaborator, a gift and not a purchase)
Description: (§1) All the target compounds were freshly prepared in 100 mM DMSO stock solutions. All the MBL and SBL enzymes used in this study were obtained from our collaborator, Li’s Laboratory in Sichuan University. Each compound was initially evaluated for inhibitory activity to MBL and SBL enzymes at 100 and 10 μM, by preincubation with the appropriate amount of enzymes in the assay buffer for 10 min, followed by adding the substrate FC5 to initiate the reactions, and monitoring the fluorescence at λex of 380 nm and λem of 460 nm. The IC50 values for the compounds (with 10 different concentrations in threefold dilution) were further determined. All determinations were tested in triplicate. The IC50 values were obtained from the plot of activity versus inhibitor concentration by using the GraphPad Prism software.

NDM-1 = target: T2, NDM-1 (Klebsiella pneumoniae, UniProt C7C422); assay: NDM-1 inhibition assay (FC5 fluorogenic substrate); conditions: mean ± SD (n = 3)
T2 construct: Li's Laboratory, Sichuan University (collaborator, a gift and not a purchase)
T2 sequence (C7C422 29-270, looked up, species assumed): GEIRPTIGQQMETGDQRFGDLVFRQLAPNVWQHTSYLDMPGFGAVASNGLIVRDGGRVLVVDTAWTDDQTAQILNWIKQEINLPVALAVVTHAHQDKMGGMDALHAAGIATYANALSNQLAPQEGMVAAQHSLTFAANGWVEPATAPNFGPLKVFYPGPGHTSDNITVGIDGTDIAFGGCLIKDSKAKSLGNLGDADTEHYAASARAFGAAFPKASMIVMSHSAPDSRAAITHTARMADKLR
Description: (§2) Then, we tested all the target compounds against other B1 MBL enzymes, including NDM-1, IMP-1, VIM-1, and VIM-5 (Table 1); all the assay conditions (including enzyme/substrate concentrations) are the same as that previously used. […]. […].
as §1

VIM-1 = target: T3, VIM-1 (Pseudomonas aeruginosa, UniProt A0A0F7KYQ8); assay: VIM-1 inhibition assay (FC5 fluorogenic substrate)
T3 construct: Li's Laboratory, Sichuan University (collaborator, a gift and not a purchase)
Description: as §2, §1

VIM-5 = VIM-5 inhibition assay (FC5 fluorogenic substrate); conditions: mean ± SD (n = 3)
Description: as §2, §1

IMP-1 = target: T4, IMP-1 (Serratia marcescens, UniProt P52699); assay: IMP-1 inhibition assay (FC5 fluorogenic substrate); conditions: for inhibition at 10 µM / inhibition at 100 µM: mean ± SD (n = 3); for IC50: 10 concentrations in threefold dilution, triplicate, read-out: IC50 against IMP-1
T4 construct: Li's Laboratory, Sichuan University (collaborator, a gift and not a purchase)
T4 sequence (P52699 19-246 limits assumed): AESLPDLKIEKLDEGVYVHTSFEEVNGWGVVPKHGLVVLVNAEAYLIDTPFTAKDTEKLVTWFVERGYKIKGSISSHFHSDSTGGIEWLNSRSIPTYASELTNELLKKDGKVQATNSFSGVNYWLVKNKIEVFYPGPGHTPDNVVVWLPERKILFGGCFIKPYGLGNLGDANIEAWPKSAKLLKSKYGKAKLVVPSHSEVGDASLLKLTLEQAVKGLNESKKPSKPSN
Description: as §2, §1

Row | IC50 (VIM-2) | inhibition at 10 µM (VIM-2) | inhibition at 100 µM (VIM-2) | inhibition at 10 µM (NDM-1) | inhibition at 100 µM (NDM-1) | inhibition at 100 µM (VIM-1; mean ± SD (n = 3)) | inhibition at 10 µM (IMP-1) | inhibition at 100 µM (IMP-1) | IC50 (VIM-1; 10 concentrations in threefold dilution, triplicate, read-out: IC50 against VIM-1) | IC50 (IMP-1) | inhibition at 10 µM (VIM-1; @ 10 μM, mean ± SD (n = 3)) | Structure (SMILES) | Inhibition % VIM-5 (VIM-5; @ 100 μM) | Inhibition % VIM-5 (VIM-5; @ 10 μM)
1 | – | 34% | 45 ± 5% | 27% | 32 ± 4% | 21 ± 3% | 21% | 25 ± 1% | – | – | – | Cc1ccccc1-c1nnc2n1CCCS2 [5b, 3-(O-Tolyl)-6,7-dihydro-5H-[1,2,4]triazolo[3,4-b][1,3]thiazine] | 12 ± 2/– % | –
2 | – | 16% | 42 ± 2% | 22% | 17 ± 1% | 32 ± 1% | – | – | – | – | – | Clc1cccc(-c2nnc3n2CCCS3)c1 [5f, 3-(3-Chlorophenyl)-6,7-dihydro-5H-[1,2,4]triazolo[3,4-b][1,3]thiazine] | −9 ± 2/– % | –
3 | > 100 µM | 35% | 52 ± 4% | 9% | 26 ± 1% | 29 ± 3% | 11% | 12 ± 1% | – | – | – | FC(F)(F)c1cccc(-c2nnc3n2CCCS3)c1 [5i, 3-(3-(Trifluoromethyl)phenyl)-6,7-dihydro-5H-[1,2,4]triazolo[3,4-b][1,3]thiazine] | 21 ± 2/– % | –
4 | – | 32% | 34 ± 3% | 23 ± 2% | 23 ± 2% | 27 ± 1% | 13% | 8 ± 1% | – | – | – | Fc1ccc(-c2nnc3n2CCCS3)cc1 [5j, 3-(4-Fluorophenyl)-6,7-dihydro-5H-[1,2,4]triazolo[3,4-b][1,3]thiazine] | 14 ± 1/– % | –
5 | 47.2 µM | 58% | 84 ± 6% | 17% | 14 ± 1% | 28 ± 2% | 5% | 7 ± 1% | – | – | – | Clc1ccc(-c2nnc3n2CCCS3)cc1 [5k, 3-(4-Chlorophenyl)-6,7-dihydro-5H-[1,2,4]triazolo[3,4-b][1,3]thiazine] | 12 ± 1/– % | –
6 | 53.2 µM | 43% | 82 ± 4% | 3% | 8 ± 1% | 61 ± 3% | – | – | > 100 µM | – | – | FC(F)(F)c1ccc(-c2nnc3n2CCCS3)cc1 [5n, 3-(4-(Trifluoromethyl)phenyl)-6,7-dihydro-5H-[1,2,4]triazolo[3,4-b][1,3]thiazine] | −10 ± 2/– % | –
7 | – | 6% | 21 ± 3% | 9% | 4 ± 1% | 25 ± 2% | – | – | – | – | – | c1ccc(Cc2nnc3n2CCCS3)cc1 [5r, 3-Benzyl-6,7-dihydro-5H-[1,2,4]triazolo[3,4-b][1,3]thiazine] | 8 ± 1/– % | –
8 | > 100 µM | 40% | 75 ± 4% | 13% | 23 ± 2% | 14 ± 2% | – | – | – | – | – | CC(=O)Nc1ccc(Nc2ccc(-c3nnc4n3CCCS4)cc2)cc1 [5t, N-(4-((4-(6,7-dihydro-5H-[1,2,4]triazolo[3,4-b][1,3]thiazin-3-yl)phenyl)amino)phenyl)acetamide] | 31 ± 2/– % | –
9 | – | 22% | 32 ± 4% | 16% | 15 ± 1% | 24 ± 3% | 6% | 5 ± 1% | – | – | – | c1coc(-c2nnc3n2CCCS3)c1 [10a, 3-(Furan-2-yl)-6,7-dihydro-5H-[1,2,4]triazolo[3,4-b][1,3]thiazine] | 11 ± 1/– % | –
10 | – | 16% | 30 ± 3% | 8% | 12 ± 2% | 30 ± 2% | 27% | 57 ± 6% | – | > 100 µM | 32% | c1csc(-c2nnc3n2CCCS3)c1 [10b, 3-(Thiophen-2-yl)-6,7-dihydro-5H-[1,2,4]triazolo[3,4-b][1,3]thiazine] | 18 ± 2% | 21 ± 2%
11 | > 100 µM | 35% | 57 ± 5% | 21% | 26 ± 2% | 25 ± 3% | 5% | 30 ± 3% | – | – | – | Oc1ccccc1-c1nnc2n1CCCS2 [compound 6, 2-(6,7-Dihydro-5H-[1,2,4]triazolo[3,4-b][1,3]thiazin-3-yl)phenol] | 10 ± 2/– % | –
12 | – | 21% | 26 ± 2% | 10% | 7 ± 1% | 22 ± 3% | 18% | 15 ± 2% | – | – | – | O=C(O)c1ccccc1-c1nnc2n1CCCS2 [compound 14, 2-(6,7-Dihydro-5H-[1,2,4]triazolo[3,4-b][1,3]thiazin-3-yl)benzoic acid] | 11 ± 1/– % | –

The remaining lines, values behind:

Row | Structure (SMILES) | IC50 (VIM-2) | inhibition at 10 µM (VIM-2) | inhibition at 100 µM (VIM-2) | inhibition at 10 µM (NDM-1) | inhibition at 100 µM (NDM-1) | inhibition at 100 µM (VIM-1; mean ± SD (n = 3)) | inhibition at 10 µM (IMP-1) | inhibition at 100 µM (IMP-1) | IC50 (VIM-1; 10 concentrations in threefold dilution, triplicate, read-out: IC50 against VIM-1) | IC50 (IMP-1) | inhibition at 10 µM (VIM-1; @ 10 μM, mean ± SD (n = 3)) | Inhibition % VIM-5 (VIM-5; @ 100 μM) | Inhibition % VIM-5 (VIM-5; @ 10 μM)
13 | c1ccc(-c2nnc3n2CCCS3)cc1 [5a, 3-Phenyl-6,7-dihydro-5H-[1,2,4]triazolo[3,4-b][1,3]thiazine] | ~179 µM | 17% | ~50% | 3% | 29 ± 1% | 29 ± 2% | – | – | – | – | – | 1 ± 1/– % | –
14 | Brc1ccccc1-c1nnc2n1CCCS2 [5c, 3-(2-Bromophenyl)-6,7-dihydro-5H-[1,2,4]triazolo[3,4-b][1,3]thiazine] | – | 26% | 43 ± 5% | 17% | 8 ± 1% | 19 ± 2% | 16% | 15 ± 1% | – | – | – | 13 ± 2/– % | –
15 | COc1ccccc1-c1nnc2n1CCCS2 [5d, 3-(2-Methoxyphenyl)-6,7-dihydro-5H-[1,2,4]triazolo[3,4-b][1,3]thiazine] | – | 16% | 39 ± 3% | 6% | 15 ± 1% | 27 ± 2% | – | – | – | – | – | 7 ± 1/– % | –
16 | Fc1cccc(-c2nnc3n2CCCS3)c1 [5e, 3-(3-Fluorophenyl)-6,7-dihydro-5H-[1,2,4]triazolo[3,4-b][1,3]thiazine] | – | 15% | 34 ± 3% | 20% | 10 ± 2% | 22 ± 3% | 4% | 8 ± 1% | – | – | – | 6 ± 1/– % | –
17 | Ic1cccc(-c2nnc3n2CCCS3)c1 [5h, 3-(3-Iodophenyl)-6,7-dihydro-5H-[1,2,4]triazolo[3,4-b][1,3]thiazine] | – | 7% | 33 ± 2% | 10% | 9 ± 1% | 27 ± 3% | – | – | – | – | – | −5 ± 2/– % | –
18 | Ic1ccc(-c2nnc3n2CCCS3)cc1 [5m, 3-(4-Iodophenyl)-6,7-dihydro-5H-[1,2,4]triazolo[3,4-b][1,3]thiazine] | > 100 µM | 44% | 78 ± 5% | 4% | 1 ± 1% | 34 ± 1% | – | – | – | – | – | 2 ± 1/– % | –
19 | CC(C)(C)c1ccc(-c2nnc3n2CCCS3)cc1 [5o, 3-(4-(Tert-butyl)phenyl)-6,7-dihydro-5H-[1,2,4]triazolo[3,4-b][1,3]thiazine] | – | 22% | 23 ± 4% | 9% | 11 ± 1% | 27 ± 2% | 15% | 63 ± 1% | – | > 100 µM | – | 15 ± 1/– % | –
20 | Cc1c(-c2nnc3n2CCCS3)cccc1[N+](=O)[O-] [5p, 3-(2-Methyl-3-nitrophenyl)-6,7-dihydro-5H-[1,2,4]triazolo[3,4-b][1,3]thiazine] | 53.8 µM | 42% | 71 ± 6% | 22% | 16 ± 2% | 19 ± 2% | -5% | 10 ± 1% | – | – | – | 15 ± 1/– % | –
21 | c1ccc(-c2nnc3n2CCCS3)nc1 [5q, 3-(Pyridin-2-yl)-6,7-dihydro-5H-[1,2,4]triazolo[3,4-b][1,3]thiazine] | – | 26% | 45 ± 1% | 20% | 11 ± 1% | 19 ± 1% | 3% | 9 ± 1% | – | – | – | 14 ± 1/– % | –
22 | Brc1ccc(-c2nnc3n2CCS3)cc1 [5s, 3-(4-Bromophenyl)-5,6-dihydrothiazolo[2,3-c][1,2,4]triazole] | 67.2 µM | 50% | 80 ± 3% | 29% | 28 ± 3% | 29 ± 2% | 9% | 4 ± 1% | – | – | – | 14 ± 2/– % | –
